Test results: patent publication US9603896B2, “Peptide compounds and methods of production and use thereof” (priority 2012, dated 2017)
Square brackets hold non-standard residues; d marks the D form. Ends that are not written are not given here. Peptide text beside a SMILES is read from it. AEEA = NCCOCCOCC(=O)O

Assays:
[1] = tested on: Pseudomonas aeruginosa ATCC® 27853™; format: cell-based
Protocol: The three peptide compounds BCC01-5RMP (SEQ ID NO:21), BCC02-5RMP (SEQ ID NO:22), and BCC03-5RMP (SEQ ID NO:23) were assayed for in vitro bactericidal activity against Pseudomonas aeruginosa, Escherichia coli, Salmonella typhimurium, and Acinetobacter baumannii. […] The CFU remaining at the end of 60 to 180 minute incubation was determined, and the data plotted as a log reduction in CFU/ml.
Tables 4-6 show the results of various peptides and peptide compounds against P. aeruginosa and E. coli strains. Tables 4 and 5 show the results of an investigation of the effects of peptide or peptide compounds BCC03-5RMP (SEQ ID NO:23), BCC03-MP (SEQ ID NO:24) and BCC03-5R (SEQ ID NO:20) against P. aeruginosa ATCC® strain 27853™ and E. coli ATCC® strain 25922™ (American Type Culture Collection, Manassas, Va.). […] Table 6 compares the activity of several other compounds, including the “5R” versions of BCC01, i.e., SEQ ID NO:18 (which comprises SEQ ID NO:1 with five additional arginines), the “5R” version of BCC02 (i.e., SEQ ID NO:19, which comprises SEQ ID NO:2 with five additional arginines), and BCC03-5RMP (SEQ ID NO:23), and BCC03-MP (SEQ ID NO:24, i.e., without the five additional R residues). The data generally indicate the superiority of BCC03-5RMP (SEQ ID NO:23) against E. coli, and the superiority of the 5R or 5RMP versions of the peptide over the “AEEA only” peptide against P. aeruginosa.
(§1) For FIGS. 10-13, in vitro bactericidal assays were performed using a starting inoculum of 1×10^6 CFU/ml of the bacterial suspension. The CFU remaining at the end of the 60-180 minute incubation was determined, and the data was plotted as log reduction in CFU/ml.
(§2) In particular, each of the test peptides (CAP37 peptides 120-146WR, 120-146WH, and 95-122 (SEQ ID NOs: 30, 31, and 26, respectively)) was used at 25, 12.5, 6.25, and 3.12 μM. Gentamicin was used at 4 μg/ml. 1×10^6/ml Acinetobacter baumannii ATCC® BAA-747″ or Pseudomonas aeruginosa ATCC® 27853™ (American Type Culture Collection, Manassas, Va.) were incubated with the peptides, negative buffer control (tryptone saline), and positive control gentamicin at pH 5.5 or 7.2. A 60 minute incubation was used for Acinetobacter baumannii ATCC® BAA747™, while a 180 minute incubation was used for Pseudomonas aeruginosa ATCC® 27853™. 50 μl aliquots were plated out on agar plates and incubated overnight. Colony forming units were counted after overnight incubation and CFU/ml calculated.
For FIG. 14, 1×10^6/ml Pseudomonas aeruginosa ATCC® 27853™ were incubated with each of the test peptides (CAP37 peptides 120-146WR, 120-146WH, 120-146QR, 120-146QH, 120-146QR-5RMP, and 120-146QH-5RMP (SEQ ID NOs: 30, 31, 28, 29, 32, and 33, respectively)) at 150, 75, and 37.5 μg/ml, or negative buffer control (tryptone saline), for 180 minutes at pH 5.5. 50 μl aliquots were plated out on agar plates and incubated overnight. Colony forming units were counted after overnight incubation and CFU/ml calculated.

[2] = tested on: P. aeruginosa (ATCC® 27853™); assay: Pseudomonas keratitis model in the mouse eye; format: in vivo
Protocol: A circular wound was created on the mouse cornea by removing the epithelium and infected with 10^5 colony forming units (CFU) of P. aeruginosa (ATCC® 27853™ (American Type Culture Collection, Manassas, Va.)). Infected wounds were treated with saline (0.9% sodium chloride, vehicle control) or saline containing indicated concentrations of peptide every 15 minutes for 2 hours, then every 30 minutes for 3 hours on the first day. Infected wounds were treated twice on the second day and once on the third day. Mice were killed at 48 hours post-infection, and CFU/eye were quantified. The means were plotted and are representative of 5 to 9 mice per group. Mann Whitney test was performed for each group as compared to the saline control group. *P=0.014.
A circular wound (2 mm) was created on the mouse cornea by removing the epithelium and infecting the wound with 10^5 CFU of P. aeruginosa (ATCC® 27853™ (American Type Culture Collection, Manassas, Va.)). Infected wounds were treated with saline or saline containing indicated concentrations of peptide every 15 minutes for 2 hours, then every 30 minutes for 3 hours on the first day. Infected wounds were treated twice on the second day and once on the third day. Mice were killed at 48 hours post-infection, and the colony forming units per eye (CFU/eye) were quantified. The means are plotted and are representative of 5 to 9 mice per group. Mann Whitney test was performed for each group as compared to the saline control group.
For FIGS. 15-17, in vivo bactericidal activity of the peptides was also investigated using the standard Pseudomonas keratitis model in the mouse eye (FIGS. 15-17). Peptides 120-146QR-5RMP (SEQ ID NO:32), 120-146WH (SEQ ID NO:31), and 120-146WR (SEQ ID NO: 30) were applied topically at doses of 2, 5, 10, and 20 mg/ml to the wounded cornea that had been infected with 10^5 CFU of Pseudomonas aeruginosa. The efficacies of the peptides were compared to treatment with the vehicle control. Mice were euthanized at 48 hours post infection, and the CFU/eye were quantified.

[3] = tested on: Acinetobacter baumannii ATCC® BAA-747™; assay: In vitro bactericidal assay (CFU remaining, log reduction); format: cell-based; conditions: for reduction of CFU/ml: 60 minutes, highest peptide concentrations (25 μM)
Protocol: The three peptide compounds BCC01-5RMP (SEQ ID NO:21), BCC02-5RMP (SEQ ID NO:22), and BCC03-5RMP (SEQ ID NO:23) were assayed for in vitro bactericidal activity against Pseudomonas aeruginosa, Escherichia coli, Salmonella typhimurium, and Acinetobacter baumannii. The starting inoculum for all experiments was 1×10^6 colony forming units (CFU)/ml. The CFU remaining at the end of 60 to 180 minute incubation was determined, and the data plotted as a log reduction in CFU/ml.
as §1, §2

| Compound | reduction in CFU (FIG. 14) ([1]; pH 5.5, 180 minutes, 75 μg/ml) | mice with no viable bacteria in the eye after treatment ([2]; 10 and 20 mg/ml groups together) | CFU/eye at 48 hours post infection vs saline ([2]; topical, doses of 10 and 20 mg/ml) | activity against P. aeruginosa ([1]; 120-146WR at 25 μM, gentamicin 4 μg/ml) | reduction of CFU (FIG. 14) ([1]; pH 5.5, 180 minutes, highest concentrations (150 μg/ml)) | reduction of CFU/ml ([1]; pH 7.2, 180 minutes, highest concentrations of peptides (25 μM)) | bactericidal activity against Pseudomonas aeruginosa ([1]; pH 7.2, 180 minutes, peptides at 25 μM) | infection (CFU/eye) at 48 hours post infection vs saline ([2]; topical, 5, 10, and 20 mg/ml) | activity against A. baumannii ([3]; 12.5 μM) | activity against A. baumannii ([3]; 25 μM) | reduction of CFU/ml ([3]; pH 5.5) | reduction of CFU/ml ([3]; pH 7.2) |
| --- | --- | --- | --- | --- | --- | --- | --- | --- | --- | --- | --- | --- |
| CC(C)C[C@H](NC(=O)[C@H](CCCNC(=N)N)NC(=O)CNC(=O)CNC(=O)[C@H](CO)NC(=O)[C@H](CCCNC(=N)N)NC(=O)[C@H](CCC(N)=O)NC(=O)[C@H](CO)NC(=O)CNC(=O)[C@H](Cc1c[nH]c2ccccc12)NC(=O)CNC(=O)[C@H](C)NC(=O)[C@@H](NC(=O)[C@H](CCC(N)=O)NC(=O)[C@H](CS)NC(=O)[C@H](CCCNC(=N)N)NC(=O)[C@@H](NC(=O)CNC(=O)[C@H](CCCNC(=N)N)NC(=O)[C@H](CCCNC(=N)N)NC(=O)[C@H](CCCNC(=N)N)NC(=O)[C@H](CCCNC(=N)N)NC(=O)COCCOCCNC(=O)COCCOCCN)[C@@H](C)O)C(C)C)C(=O)N[C@@H](CO)C(=O)N[C@@H](CCCNC(=N)N)C(=O)N[C@@H](Cc1ccccc1)C(=O)N1CCC[C@H]1C(=O)N[C@@H](CCCNC(=N)N)C(=O)N[C@@H](Cc1ccccc1)C(=O)N[C@H](C(=O)N[C@@H](CC(N)=O)C(=O)N[C@H](C(=O)N[C@@H](CCCNC(=N)N)C(=O)O)C(C)C)C(C)C [120-146QR-5RMP] (H-[AEEA][AEEA]RRRRGTRCQVAGWGSQRSGGRLSRFPRFVNVR-OH) | ~6 log | Six of the 10 | significantly reduced the CFU/eye |  |  |  |  |  |  |  |  |  |
| GTRCQVAGWGSWRSGGRLSRFPRFVNV [Peptide 120-146WR] |  |  |  | highly active | 6 logs | 6 logs | as effective as the standard antibiotic gentamicin | significantly reduced infection | highly active | highly active | ~4 logs | ~5.5 logs |
